Measured values reported in patent US6436630B1, “Method for testing the toxicity of chemical substances using gastropods” (priority 1998, dated 2002).
Where a name gives a salt, the structure may show the parent alone.

Columns and labels:
[1] = test system: foot mucosa of slugs of the species Arion; test: Slug mucosal toxicity test of local anaesthetics, Example 4; format: in vivo; settings: in vivo; for % MP, mucus production as % of the body weight at the start of the day before the treatment / Total protein release into PBS: Arion (slug)
Procedure: The following local anaesthetics were used as test substance: procaine HCl, lidocaine HCl, prilocaine HCl, tetracaine HCl and bupivacaine HCl. All test substances were prepared in PBS (pH 7.4) at 1% w/v concentrations. The slugs were daily incubate during 15 min with the test solution during five days. After the incubation period the slugs were placed on 1 ml PBS in a petri dish. The PBS was sampled every hour and refreshed with 1 ml PBS for 3 hours after the treatment.
The total protein released into the PBS was determined.

[2] = test system: foot mucosa of slugs (species Arion); test: Slug mucosal toxicity test, Example 1 (15 min daily treatment, five days); format: in vivo; settings: for % WL, reduction in weight (weight loss) caused by the 15 minute treatment as % of initial body weight of the day / % MP, mucus production as % of the body weight at the start of the day before the treatment: 1% w/v in PBS; for % MP, mucus production as % of the body weight at the start of the day before the treatment / ALP released into PBS / LDH released into PBS / Protein released into PBS: 15 min; for ALP released into PBS / LDH released into PBS / Protein released into PBS: total mean of 7 samples/day per slug
Description: Initially, the slugs are kept on a culture under controlled conditions of temperature and humidity until they have reached a stable body weight. The purpose of achieving a stable body weight is to improve the reproducibility of the results, particularly as the release of substances from the slugs may conveniently be measured in terms of the body weight thereof. The slugs are then isolated from the culture and placed in a vented plastic box lined with moist paper towel and placed at 95% relative humidity at 20° C. seven days before the start of an experiment. The slugs were not bred in any particular way, i.e. they were wild slugs. It is anticipated that even more accurate and reproducible results can be obtained by selective breeding of the slugs, although as shown by the test results this is not a necessary requirement of the present invention to obtain accurate and useful data.
The test procedure is simple and rapid. The chemical substance to be tested is applied directly to the mucosal membrane of a slug, e.g. to the foot, by placing the slug individually in a petri dish containing the test substance. Slugs treated with phosphate buffered saline are used as a negative control. As a positive control slugs treated with a known toxic substance, benzalkonium chloride, were used.
Because the mucosal epithelium of interest is located at the outside of the slug the effect of substances can be easily observed. […] This can also be simply measured by weighing the petri dish before and after the treatment of the slugs with the chemical substance (with the slugs removed in each case). Additionally an indirect response to epithelial damage caused by a chemical substance may be determined by the reduction of the body weight of the slugs due to the leakage of haemolymphatic fluids through the damaged foot surface.
After the treatment the slugs are transferred individually to a fresh petri dish containing phosphate buffered saline. After a suitable exposure time, e.g. 1 hour the phosphate buffered saline is collected and analysed for the presence of proteins and/or enzymes, e.g. lactate dehydrogenase and/or alkaline phosphatase, or other marker substances released from the foot or epithelium of the slug, for example membrane associated components such as phospholipids or cholesterol. This procedure can be repeated after periods of several hours in order to determine the reversibility of the cell damage caused by the test chemical substance. The concentration or amount of the chemical substance to be tested can be changed and the influence of the concentration can be easily examined. The exposure time can also be changed if required. The slugs can be treated during several successive days in order to investigate the subchronical effect of substances on the foot mucosa.
Seven days before the start of the experiment the slugs were isolated in a plastic box lined with moist paper towel and placed at 95% relative humidity at 20° C. As test substances didecanyol-L-α-phosphatidylcholine (DDPC) and sodium deoxycholate (SDC) were selected. Benzalkonium chloride (1% w/v), SDC (1% w/v) and DDPC (1%, w/v) were prepared in phosphate buffered saline (PBS, pH 7.4). […] During the test the slugs are preferably kept in a generally calm and normal state and are not subjected to mechanical vibrations or mechanical or electrical disturbances which may affect mucus production.
The enzymes (lactate dehydrogenase (LDH) and alkaline phosphatase (ALP)) and total protein released into the PBS were determined. The slugs were weighed before and after the incubation period to determine the body weight changes. The mucus production was measured by weighing the petri dishes before and after the treatment with a test substance. The results are shown in Table 1 and shown graphically in FIGS. 1 to 5.

CCCCNc1ccc(C(=O)OCCN(C)C)cc1 [Tetracaine HCl, tetracaine HCl]
% MP, mucus production as % of the body weight at the start of the day before the treatment ([1]; 1 day): 3.45%
Total protein release into PBS ([1]; 1 day): 413 µg/mL
% MP, mucus production as % of the body weight at the start of the day before the treatment ([1]; 2 day): 2.48%
Total protein release into PBS ([1]; 2 day): 130 µg/mL
% MP, mucus production as % of the body weight at the start of the day before the treatment ([1]; 3 day): 1.15%
Total protein release into PBS ([1]; 3 day): 120 µg/mL
% MP, mucus production as % of the body weight at the start of the day before the treatment ([1]; 4 day): 1.29%
Total protein release into PBS ([1]; 4 day): 128 µg/mL
% MP, mucus production as % of the body weight at the start of the day before the treatment ([1]; 5 day): 0.65%
Total protein release into PBS ([1]; 5 day): 149 µg/mL
mucus production (in words) [1]: increased mucus production
protein release (in words) [1]: increased protein release

CCCNC(C)C(=O)Nc1ccccc1C (stereo not drawn) [Prilocaine HCl, prilocaine HCl]
% MP, mucus production as % of the body weight at the start of the day before the treatment ([1]; 1 day): 0%
Total protein release into PBS ([1]; 1 day): 139 µg/mL
% MP, mucus production as % of the body weight at the start of the day before the treatment ([1]; 2 day): 0%
Total protein release into PBS ([1]; 2 day): 62 µg/mL
% MP, mucus production as % of the body weight at the start of the day before the treatment ([1]; 3 day): 0%
Total protein release into PBS ([1]; 3 day): 72 µg/mL
% MP, mucus production as % of the body weight at the start of the day before the treatment ([1]; 4 day): 0%
Total protein release into PBS ([1]; 4 day): 65 µg/mL
% MP, mucus production as % of the body weight at the start of the day before the treatment ([1]; 5 day): 0%
Total protein release into PBS ([1]; 5 day): 82 µg/mL

CCCCCCCCCC(=O)OC[C@H](COP(=O)([O-])OCC[N+](C)(C)C)OC(=O)CCCCCCCCC [DDPC, didecanyol-L-α-phosphatidylcholine]
membrane damage (in words) ([2]; 1% w/v, 15 min daily, five days): little or no damage
% WL, reduction in weight (weight loss) caused by the 15 minute treatment as % of initial body weight of the day ([2]; day 1): 4.84%
% MP, mucus production as % of the body weight at the start of the day before the treatment ([2]; day 1): 0.2%
ALP released into PBS ([2]; day 1, 1% w/v): 9.43 U/L
LDH released into PBS ([2]; day 1, 1% w/v): 9.51 U/L
Protein released into PBS ([2]; day 1, 1% w/v): 12.43 μg/30 μL
% WL, reduction in weight (weight loss) caused by the 15 minute treatment as % of initial body weight of the day ([2]; day 2): 1.19%
% MP, mucus production as % of the body weight at the start of the day before the treatment ([2]; day 2): 0%
ALP released into PBS ([2]; day 2, 1% w/v): 21.83 U/L
LDH released into PBS ([2]; day 2, 1% w/v): 14.47 U/L
Protein released into PBS ([2]; day 2, 1% w/v): 3.77 μg/30 μL
% WL, reduction in weight (weight loss) caused by the 15 minute treatment as % of initial body weight of the day ([2]; day 3): 1.15%
% MP, mucus production as % of the body weight at the start of the day before the treatment ([2]; day 3): 0%
ALP released into PBS ([2]; day 3, 1% w/v): 13.82 U/L
LDH released into PBS ([2]; day 3, 1% w/v): 23.36 U/L
Protein released into PBS ([2]; day 3, 1% w/v): 6.41 μg/30 μL
% WL, reduction in weight (weight loss) caused by the 15 minute treatment as % of initial body weight of the day ([2]; day 4): 1.39%
% MP, mucus production as % of the body weight at the start of the day before the treatment ([2]; day 4): 0%
ALP released into PBS ([2]; day 4, 1% w/v): 4.55 U/L
LDH released into PBS ([2]; day 4, 1% w/v): 19.07 U/L
Protein released into PBS ([2]; day 4, 1% w/v): 4.98 μg/30 μL
% WL, reduction in weight (weight loss) caused by the 15 minute treatment as % of initial body weight of the day ([2]; day 5): 1.14%
% MP, mucus production as % of the body weight at the start of the day before the treatment ([2]; day 5): 0%
ALP released into PBS ([2]; day 5, 1% w/v): 12.42 U/L
LDH released into PBS ([2]; day 5, 1% w/v): 28.32 U/L
Protein released into PBS ([2]; day 5, 1% w/v): 2.40 μg/30 μL
